Earlier results, collected in patent publication US20250261646A1, “SOLID COMPOSITION AS A SOLUBLE PRECURSOR OF AN ECO-FRIENDLY AND EFFECTIVE METAL-BASED BIOCIDE, PROCESS AND USE THEREOF” (BIOREM ENGINEERING SA, priority 2022, published 2025).

Settings: for comparison

For [O]=[Zn] [ZnO, zinc(II) oxide], the solubility is listed as 4 µg/mL.
